Values quoted from earlier work, collected in patent publication US8309133B2, “Nanoparticulate quinazoline derivative formulations” (Alkermes Pharma Ireland Limited, priority 2005, dated 2012).
Where two headings read alike, the source gives them in different places.

Experiments:
[1] = oral tablet
[2] = water at 37° C.

## C#Cc1cccc(Nc2ncnc3cc(OCCOC)c(OCCOC)cc23)c1.Cl [erlotinib HCl, N-(3-ethynylphenyl)-6,7-bis(2-methoxyethoxy)-4-quinazolinamine]
[1]; administered with food
  Absorption: 100%
[1]; without food
  Absorption: 60%
[2]
  Solubility in water: very slightly soluble
